Laboratory results as given in US6610681B1, “Neurotherapeutic clavulanate composition and method” (Revaax Pharmaceuticals, LLC, priority 1999, dated 2003).
Like-named read-outs stand apart in the source and are kept apart here.

What was measured:
[1] = system: male Wistar rats; assay: general motor activity in an open field; assay type: in vivo, rat; conditions: 1.0 μg/kg IP, after the plus-maze test, vs vehicle
Description: Immediately after each of the plus-maze tests reported above in Section II, animals were tested for general motor activity in an “open field.” Animals were placed into a large clean Plexiglas cage (48×32×40 cm) devoid of bedding. This open field was delineated into equal quadrants by tape on the underside of the cage. Animals were scored for motor activity by counting the number of quadrants traversed in 1 min.

[2] = in vivo, cited from earlier work
[3] = approximately 7-10 mg/kg/day, intravenous with ticarcillin; cited from earlier work

O=C(O)[C@H]1/C(=C/CO)O[C@@H]2CC(=O)N21 [CLAV, clavulanic acid]
open field activity (quadrants traversed in 1 min) [1]: no significant differences | oral activity and stability ([2]; po): orally active and stable | CSF/plasma ratio [2]: 0.25 | elimination half-life [2]: just under two hours | passage of the blood-brain barrier [2]: readily passes the blood-brain barrier | CSF/plasma ratio ([2]; listed as Clavulanic acid): around 0.25 | adverse reactions or contraindications [3]: no reported adverse reactions or contraindications
